Test results published in US20210393722A1, “COMPOSITION FOR IMPROVING SKIN BARRIER DAMAGE AND/OR ALLEVIATING SKIN INFLAMMATION, CONTAINING 3,5-DICAFFEOYLQUINIC ACID AS ACTIVE INGREDIENT” (KOREA UNIVERSITY RESEARCH AND BUSINESS FOUNDATION, priority 2018, published 2021).

Tests used:
Type in all cases: cell-based, human
HaCaT cells [1] = experiment: Western blot of protein expression in HaCaT cells treated with 3,5-DCQA (Example 7); conditions: 1 μM 3,5-DCQA
Protocol: (§1) HaCaT cells (human keratinocytes) were cultured in Dulbecco's modified Eagle's medium (DMEM) containing 10% fetal bovine serum (FBS) and 1% antibiotic-antimycotic solution at 37° C. in a 5% CO2 incubator. The cell culture medium was replaced with fresh DMEM every 48-72 hours. HaCaT cells within 5-17 passages were plated at a density of 1×10^4 cells per well in an 8-well chamber slide, or at a density of 1×10^6 cells per well in a 6-well culture plate in DMEM containing […] and 1% antibiotic-antimycotic solution. The cells were cultured for 24-48 hours in a 5% CO2 incubator at 37° C. Then, the medium was replaced with DMEM containing 1% fetal bovine serum. Thereafter, the cells were treated for 24 hours with DNCB (5 μM, Sigma-Aldrich, Louis, Mo., USA) or SDS (30 μM, Sigma-Aldrich) along with the AG extract (50 μg) and the PPARδ antagonist GSK0660 (Sigma-Aldrich). In addition, the cells were treated with 1 μM 3,5-dicaffeoylquinic acid (3,5-DCQA). The HaCaT cells were donated by Dr. Sang-Wook Son. All the reagents for cell culture were purchased from Welgene Inc. (Daegu, Korea). The concentrations of all the reagents were final concentrations.
In order to measure the protein expression of TRPV4, PPARδ, AMPK and SPTLC2 in HaCaT cells treated with 3,5-dicaffeoylquinic acid, western blot was performed after treating with the condition of Example 2.

HaCaT cells [2] = experiment: Immunohistochemical staining of HaCaT cells treated with 3,5-DCQA (Example 8); conditions: 1 μM 3,5-DCQA
Protocol: as §1
In order to measure the protein expression of keratin, involucrin, β-defensin and TNFα in HaCaT cells treated with 3,5-dicaffeoylquinic acid, immunohistochemical staining was performed after treating with the condition of Example 2.
The protein extracts were electrophoresed on 10% polyacrylamide gel and blotted to a nitrocellulose membrane. The nitrocellulose membrane was bound with primary and secondary antibodies sequentially, and then chemiluminescence was exposed to an X-ray film. The density for bands on the X-ray film was analyzed with the Image J program. The HaCaT cells fixed on a slide chamber were immunohistochemically stained with antibodies for keratin, involucrin, defensin and TNFα. Images were taken at 200× magnification, and the densities for the images were analyzed with the Image J program. The results were expressed as mean±SEM. The values were statistically analyzed by unpaired t-test. All the experiments were repeated three times.

HaCaT cells [3] = experiment: Western blot of protein expression in HaCaT cells treated with DNCB or SDS with AG extract (Example 3); conditions: GSK0660 along with the AG extract
Protocol: as §1
For evaluation of the protein expression levels of PPARδ, AMPK and SPTLC2 in the HaCaT cells treated with SDS or DNCB together with AG, western blot was conducted after treating with the conditions of Example 2.
The concentration of the proteins in the sample was estimated by the Bradford method. 10 μg of the extracted proteins were loaded onto 10% sodium dodecyl sulfate (SDS)-polyacrylamide gel, and protein blotting on nitrocellulose membrane was performed for 90 minutes. The membrane was blocked overnight with 5% skim milk and washed 3 times with TBS-T for 10 minutes. Primary antibodies were allowed to bind to the membrane at room temperature for 2 hours. […] Images were processed manually with Kodak GBX developer and fixer reagents (Carestream Health, Inc., Rochester, N.Y., USA) and were analyzed using the Image J program. β-Actin was used as a internal control group for normalization of the loaded proteins.

HaCaT cells [4] = experiment: Immunocytochemistry of keratin, involucrin, β-defensin 1 and TNFα in HaCaT cells treated with DNCB or SDS with AG extract (Example 4); conditions: AG extract plus GSK0660
Protocol: as §1
In order to evaluate the expression of β-defensin 1, a representative β-defensin, together with skin barrier constituents such as keratin and involucrin and the inflammatory cytokine TNFα, immunocytochemistry (ICC) was conducted after treating with the condition of Example 2.
Cells in a chamber slide were fixed with ice-cold methanol for 15 minutes. The fixed cells were treated with a 0.3% hydrogen peroxide (H2O2) solution containing 0.3% normal horse serum for 5 minutes to remove peroxidase activity in the cells. After washing with PBS for 5 minutes, the cells were incubated with diluted normal blocking serum for 20 minutes, followed by treatment with diluted primary antibodies for 1 hour. The primary antibodies for involucrin and TNFα were purchased from Novus (Littleton, Colo. 80120, USA). The primary antibody for β-defensin 1 was purchased from Santa Cruz Biotechnology, Inc. (Dallas, Tex., USA), and the primary antibody for pan-keratin was purchased from Abcam (Cambridge, UK). After washing with PBS, the cells were treated with secondary antibodies for 30 minutes. After washing with PBS, the cells were treated with a premixed Vectastain ABC reagent solution for 30 minutes. […]
The protein extracts were electrophoresed on 10% polyacrylamide gel and blotted to a nitrocellulose membrane. […] The density for bands on the X-ray film was analyzed with the Image J program. […] Images were taken at 200× magnification, and the densities for the images were analyzed with the Image J program. The results were expressed as mean±SEM. The values were statistically analyzed by unpaired t-test. […]

HaCaT cells [5] = experiment: Western blot for TRPV4, PPARδ and AMPK in HaCaT cells treated with antagonists for TRPV4, PPARδ or AMPK (Example 6); conditions: HaCaT treated with antagonist
Protocol: (§2) Western blot was conducted for TRPV4, AMPK and PPARδ in HaCaT cells treated with antagonists for TRPV4, PPARδ and AMPK. The HaCaT cells fixed on a slide chamber were immunohistochemically stained with antibodies for keratin, involucrin, defensin and TNFα. Images were taken at 200× magnification, and the densities for the images were analyzed with the Image J program. The protein extracts were electrophoresed on 10% polyacrylamide gel and blotted to a nitrocellulose membrane. The nitrocellulose membrane was bound with primary and secondary antibodies sequentially, and then chemiluminescence was exposed to an X-ray film. The density for bands on the X-ray film was analyzed with the Image J program. The results were expressed as mean±SEM. The values were statistically analyzed by unpaired t-test. All the experiments were repeated three times.
To determine the priority of major regulators which are TRPV4, PPARδ and AMPK, the protein expression level of TRPV4, PPARδ and AMPK in HaCaT cells treated with antagonists for TRPV4, PPARδ or AMPK was measured by western blot.

HaCaT cells [6] = experiment: Immunohistochemical staining of HaCaT cells treated with antagonists for TRPV4 and AMPK (Example 5); conditions: HaCaT treated with antagonist; compared to the control group
Protocol: To investigate the effect of TRPV4 and AMPK on the expression of biomarkers related to skin barrier constituents, defense and inflammation, the protein expression for keratin, involucrin, β-defensin and TNFα was evaluated by immunohistochemical staining of HaCaT cells treated with antagonists for TRPV4 and AMPK.
as §2

O=C(/C=C/c1ccc(O)c(O)c1)O[C@@H]1C[C@](O)(C(=O)O)C[C@@H](OC(=O)/C=C/c2ccc(O)c(O)c2)[C@H]1O [3,5-DCQA, 3,5-dicaffeoylquinic acid]
protein expression of AMPK (HaCaT cells [1]): increased
protein expression of PPARδ (HaCaT cells [1]): increased
protein expression of SPTLC2 (HaCaT cells [1]): increased
expression of TNFα (HaCaT cells [2]): decreased
protein expression of involucrin (HaCaT cells [2]): increased
protein expression of keratin (HaCaT cells [2]): increased
protein expression of β-defensin 1 (HaCaT cells [2]): increased

COC(=O)c1sccc1S(=O)(=O)Nc1ccc(Nc2ccccc2)cc1OC [GSK0660]
AG extract-induced increase in the expression of P-AMPK (HaCaT cells [3]): reduced
AG extract-induced increase in the expression of PPARδ (HaCaT cells [3]): reduced
AG extract-induced increase in the expression of SPTLC2 (HaCaT cells [3]): reduced
AG extract-increased involucrin protein expression (HaCaT cells [4]): offset
AG extract-increased keratin protein expression (HaCaT cells [4]): offset
AG extract-increased β-defensin 1 protein expression (HaCaT cells [4]): offset
effect of the AG extract on TNFα expression (HaCaT cells [4]): offset
protein expression level for PPARδ (HaCaT cells [5]): lowered
protein expression level for TRPV4 (HaCaT cells [5]): did not change
protein expression level for p-AMPK (HaCaT cells [5]): lowered

c1cc(-c2cnn3cc(-c4ccc(OCCN5CCCCC5)cc4)cnc23)ccn1 [compound C]
protein expression of TNFα (HaCaT cells [6]): increased
protein expression of involucrin (HaCaT cells [6]): decreased significantly
protein expression of keratin (HaCaT cells [6]): decreased significantly
protein expression of β-defensin 1 (HaCaT cells [6]): decreased significantly
protein expression level for PPARδ (HaCaT cells [5]): did not affect
protein expression level for TRPV4 (HaCaT cells [5]): did not affect
protein expression level for p-AMPK (HaCaT cells [5]): decreased
